Source: publication PMC5458211, “Mitochondrial VDAC1-based peptides: Attacking oncogenic properties in glioblastoma” (Oncotarget, 2017)
Non-standard residues stand in square brackets, D forms with d. Residues, ends and D or L forms follow the SMILES beside them.

How the values were obtained:
[1] = tested on: mitochondrial membrane potential (ΔΨm) in U-87MG cells; test: Mitochondrial membrane potential (TMRM); type: cell-based, human; conditions: 3 h
Procedure: (§1) Figure 2 Mode of action of VDAC1-based peptides – interacting with- and detaching HK, releasing Cyto c, decreasing ATP level and inducing apoptosis A. Purified HK-II was fluorescently labeled using the NanoTemper protein-labeling Kit BLUE. […] Then, 3-5 μl of the samples were loaded into MST-grade glass capillaries and thermophoresis was measured using a Monolith-NT115 apparatus, as described in Materials and methods available online in Supplemental information. […] The final DMSO concentration in control and peptide-treated cells was 0.07%. Fixed cells were visualized using confocal microscopy (Olympus 1×81), as described in Materials and Methods available online in Supplemental information. […] The levels of HK in the supernatants were quantified and are presented as relative units. D. D-ΔN-Ter-Antp induces mitochondrial inner membrane depolarization analyzed as described in Materials and Methods available online in Supplemental information. […] Cells then were analyzed for Δψ using TMRM. Δψ is presented as percentage of control. […] Release of Cyto c from the mitochondria was analyzed by immunostaining using anti-Cyto c antibodies and confocal microscopy (Olympus 1×81) as described in Materials and Methods available online in Supplemental information. […] Quantification of apoptosis in control and peptide's treated cells are presented bellow the images. […]

Neuro-2a cells = test: Cell death by PI staining and flow cytometry, Neuro-2a; type: cell-based; conditions: mouse neuroblastoma, 6 h at 37°C, serum-free medium, Suppl Fig 1
Procedure: Cells (6×10^5 /ml) were incubated in 500 μl serum-free medium with the peptide of interest for 6 h at 37°C in the presence of 5% CO2. The cells were then trypsinized, centrifuged (1500xg, 5 min), washed with PBS and analyzed for cell death using propidium iodide (PI) staining and flow cytometer (Beckton-Dickinson, San Jose, CA) and BD CellQuest Pro software. Apoptotic cell death was also analyzed by PI and annexin V-FITC staining, and by acridine orange and ethidium bromide staining and light microscopy (Olympus LX2-KSP). […]
overnight at 4°C with primary antibodies (sources and After rinsing in water, the sections were counter-stained dilutions used detailed in Table S2) and washed with hematoxylin, and mounted with mounting medium.
PBST. For IHC, endogenous peroxidase activity was Finally, the sections were observed under a microscope blocked by incubating the sections in 3% H2O2 for 15 min. (Leica DM2500) and images were collected at 20× After washing thoroughly with PBST, the sections were magnification with the same light intensity and exposure incubated with the appropriate secondary antibodies for 2 time. Non-specific control experiments were carried out h. […]
Ter-Antp (●) peptide in serum-free appropriate growth medium for 6 h at 37°C. Cells were harvested, washed twice with PBS and cell death was analyzed by propidium iodide (PI) staining and ﬂow cytometry. […]

cancer cells = conditions: ref [23]; cited from earlier work
Description: D-ΔN-Ter-Antp is composed of Antp (Penetrating), a 16 residue-long sequence from the Drosophila antennapedia-homeodomain, fused to a VDAC1-N-terminal sequence, both containing amino ...

[2] = tested on: Cyto c release in U-87MG cells; test: Cytochrome c release by immunofluorescence; type: cell-based, human; conditions: 10 μM, 3 h, serum-free medium
Procedure: as §1

Structure (SMILES): CC[C@@H](C)[C@@H](NC(=O)[C@@H](CCCCN)NC(=O)[C@H](NC(=O)[C@@H](CCC(N)=O)NC(=O)[C@@H](CCCNC(=N)N)NC(=O)[C@@H](CC(C)C)NC(=O)CNC(=O)[C@@H](Cc1ccccc1)NC(=O)CNC(=O)[C@@H](Cc1ccc(O)cc1)NC(=O)CNC(=O)[C@@H](CCCCN)NC(=O)[C@H](NC(=O)[C@@H](Cc1ccccc1)NC(=O)[C@H](NC(=O)[C@@H](CC(=O)O)NC(=O)[C@H](N)CCCNC(=N)N)C(C)C)[C@H](C)O)[C@H](C)CC)C(=O)N[C@H](Cc1c[nH]c2ccccc12)C(=O)N[C@H](Cc1ccccc1)C(=O)N[C@H](CCC(N)=O)C(=O)N[C@H](CC(N)=O)C(=O)N[C@H](CCCNC(=N)N)C(=O)N[C@H](CCCNC(=N)N)C(=O)N[C@H](CCSC)C(=O)N[C@H](CCCCN)C(=O)N[C@H](Cc1c[nH]c2ccccc12)C(=O)N[C@H](CCCCN)C(=O)N[C@H](CCCCN)C(=O)O [D-ΔN-Ter-Antp] (H-[dR][dD][dV][dF][dT][dK]G[dY]G[dF]G[dL][dR][dQ][dI][dK][dI][dW][dF][dQ][dN][dR][dR][dM][dK][dW][dK][dK]-OH; N-terminus and C-terminus assumed)
- mitochondrial membrane potential (TMRM fluorescence) [1]: decrease in ΔΨm
- cell death, Neuro-2a (Neuro-2a cells): effectively induce cell death
- cell death induction, selection among over 40 versions (cancer cells): most active in cell death induction
- Cyto c release [2]: partial Cyto c release

Structure (SMILES): CC[C@H](C)[C@H](NC(=O)[C@H](C)NC(=O)[C@@H](N)Cc1c[nH]cn1)C(=O)N[C@@H](Cc1ccc(O)cc1)C(=O)N1CCC[C@H]1C(=O)N[C@@H](CCCNC(=N)N)C(=O)N[C@@H](Cc1c[nH]cn1)C(=O)N[C@@H](CO)C(=O)N[C@@H](Cc1c[nH]c2ccccc12)C(=O)N[C@H](C(=O)N[C@@H](Cc1c[nH]c2ccccc12)C(=O)N[C@@H](CCC(=O)O)C(=O)N[C@H](CCCCN)C(=O)N[C@H](CCCCN)C(=O)N[C@H](CC(C)C)C(=O)N[C@H](CCC(=O)O)C(=O)N[C@@H](C(=O)N[C@H](C)C(=O)N[C@@H](C(=O)N[C@H](CC(N)=O)C(=O)N[C@H](CC(C)C)C(=O)N[C@H](C)C(=O)N[C@H](Cc1c[nH]c2ccccc12)C(=O)N[C@@H](C(=O)N[C@H](C)C(=O)NCC(=O)N[C@H](CC(N)=O)C(=O)N[C@H](CO)C(=O)N[C@H](CC(N)=O)C(=O)N[C@@H](CCCCN)C(=O)N[C@@H](Cc1c[nH]c2ccccc12)C(=O)N[C@H](C(=O)N[C@@H](Cc1c[nH]c2ccccc12)C(=O)N[C@@H](CCCCN)C(=O)O)[C@@H](C)O)[C@H](C)O)C(C)C)[C@H](C)O)[C@@H](C)O [Tf-D-LP4]
- cell death, Neuro-2a (Neuro-2a cells): effectively induce cell death
- Cyto c release [2]: partial Cyto c release
